Here are results for 33 molecules from patent US20230104936A1, “TRPML MODULATORS” (Casma Therapeutics, Inc., priority 2019, published 2023).

Each structure is given as a SMILES string.

This assay relates to TFEB. The experiment in a line: TFEB nuclear translocation assay, HeLa wt cells. Type of assay: cell-based. The following applies: Homo sapiens, HeLa, 2 h, 2 hrs compound treatment, Table 1 does not say HeLa wt or TRPML1 KO. The procedure, abridged:
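Using 20× epifluorescence of fixed, anti-TFEB-stained HeLa wt cells treated 2 hrs with compound, nuclear versus perinuclear ring intensity was quantified over four fields per well, yielding AC50 values.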

For the molecule `CN(C)S(=O)(=O)c1ccc(S(=O)(=O)Nc2ccc3ccnn3c2N2CCCCC2)cc1` [Compound A-793, N1,N1-dimethyl-N4-[7-(piperidin-1-yl)pyrazolo[1,5-a]pyridin-6-yl]benzene-1,4-disulfonamide], the AC50 fell in the range of 2010 to 8000 nM.

On to `CC1(C)CC2(CCN(c3ccccc3NS(=O)(=O)CCc3ccccc3)CC2)CO1` [Compound A-743, N-(2-{3,3-dimethyl-2-oxa-8-azaspiro[4.5]decan-8-yl}phenyl)-2-phenylethane-1-sulfonamide], for which the concentration at half-maximal activity (AC50) was at least 10000 nM.

For the molecule `CN(C)S(=O)(=O)c1ccc(C(Nc2cc(Cl)ccc2N2CCOCC2)C(F)(F)F)cc1` (stereo not drawn) [Compound A-356, 4-(1-{[5-chloro-2-(morpholin-4-yl)phenyl]amino}-2,2,2-trifluoroethyl)-N,N-dimethylbenzene-1-sulfonamide], the AC50 is 2010 to 8000 nM.

Consider `C=CP(=O)(C=C)c1ccccc1NS(=O)(=O)c1ccc(S(=O)(=O)N(C)C)cc1` [Compound A-227, N1-(2-(divinylphosphoryl)phenyl)-N4,N4-dimethylbenzene-1,4-disulfonamide], for which the concentration at half-maximal activity (AC50) was at least 10000 nM.

`CC(c1ccccc1N1CCC2(CC1)COC(C)(C)C2)S(=O)(=O)Cc1ccccc1` (stereo not drawn) [Compound A-751, 3,3-dimethyl-8-[2-(1-phenylmethanesulfonylethyl)phenyl]-2-oxa-8-azaspiro[4.5]decane] returned an AC50 of at least 10000 nM.

`O=S(=O)(Nc1ccccc1N1CCC(c2ccc(Cl)cc2F)CC1)c1ccc(C2(C(F)(F)F)N=N2)cc1` [Compound A-732, N-{2-[4-(4-chloro-2-fluorophenyl)piperidin-1-yl]phenyl}-4-[3-(trifluoromethyl)-3H-diazirin-3-yl]benzene-1-sulfonamide] showed an AC50 of 2010 to 8000 nM.

Turning to `CNC(=O)C1(c2ccc(F)cc2F)CCN(c2ccccc2NS(=O)(=O)c2ccc(S(=O)(=O)N(C)C)cc2)CC1` [Compound A-216, 4-(2,4-difluorophenyl)-1-{2-[4-(dimethylsulfamoyl)benzenesulfonamido]phenyl}-N-methylpiperidine-4-carboxamide], the half-maximal activity concentration (AC50) is at most 2000 nM.

Molecule `CN1CC2(CCN(c3ccc(Cl)cc3NS(=O)(=O)c3ccc4c(c3)CCC4)CC2)c2ccc(F)cc21` [Compound A-439, N-(5-chloro-2-{6-fluoro-1-methyl-1,2-dihydrospiro[indole-3,4′-piperidin]-1′-yl}phenyl)-2,3-dihydro-1H-indene-5-sulfonamide] came in with a concentration at half-maximal activity (AC50) of at most 2000 nM.

The molecule `CN(C)S(=O)(=O)c1ccc(S(=O)(=O)Nc2cc(Cl)ccc2N2CCOCC2)nc1` [Compound A-330, N2-[5-chloro-2-(morpholin-4-yl)phenyl]-N5,N5-dimethylpyridine-2,5-disulfonamide] displayed a half-maximal activity concentration (AC50) of at least 10000 nM.

As to `CN(C)S(=O)(=O)c1ccc(S(=O)(=O)Nc2cccc(C#CC(F)F)c2N2CCCCC2)cc1` [Compound A-921, N4-[3-(3,3-difluoroprop-1-yn-1-yl)-2-(piperidin-1-yl)phenyl]-N1,N1-dimethylbenzene-1,4-disulfonamide], the AC50 is at most 2000 nM.

In turn, `C[C@H]1CN(CC2CCN(c3c(F)cccc3NS(=O)(=O)c3ccc(S(=O)(=O)N(C)C)cc3)CC2)C[C@H](C)O1` [Compound A-826, N4-[2-(4-{[(2S,6S)-2,6-dimethylmorpholin-4-yl]methyl}piperidin-1-yl)-3-fluorophenyl]-N1,N1-dimethylbenzene-1,4-disulfonamide] gave a half-maximal activity concentration (AC50) of at most 2000 nM.

`CN(C)S(=O)(=O)c1ccc(S(=O)(=O)Nc2ccccc2N2CCN(C(c3ccccc3)C(F)(F)F)CC2)cc1` (stereo not drawn) [Compound A-545, N1,N1-dimethyl-N4-{2-[4-(2,2,2-trifluoro-1-phenylethyl)piperazin-1-yl]phenyl}benzene-1,4-disulfonamide]: the AC50 was at most 2000 nM.

As for `O=S(=O)(Nc1ccccc1N1CCC(c2ccc(F)cc2F)CC1)c1ccc(S(=O)(=O)C(F)F)cc1` [Compound A-185, 4-difluoromethanesulfonyl-N-{2-[4-(2,4-difluorophenyl)piperidin-1-yl]phenyl}benzene-1-sulfonamide], the AC50 was at most 2000 nM.

As to `O=S(=O)(Nc1cc(Cl)ccc1N1CCCC2(CCCO2)C1)c1ccc2c(c1)CCC2` (stereo not drawn) [Compound A-362, N-(5-chloro-2-{1-oxa-7-azaspiro[4.5]decan-7-yl}phenyl)-2,3-dihydro-1H-indene-5-sulfonamide], the AC50 was at most 2000 nM.

For the molecule `Cc1ccc(S(=O)(=O)Nc2cccc(F)c2N2CCC(CN3C4CCC3COC4)CC2)cc1` [Compound A-881, N-{3-fluoro-2-[4-({3-oxa-8-azabicyclo[3.2.1]octan-8-yl}methyl)piperidin-1-yl]phenyl}-4-methylbenzene-1-sulfonamide], the AC50 is at most 2000 nM.

`O=S(=O)(Nc1ccccc1N1CCN(c2ccc(Cl)cc2F)CC1)C1CCCCC1` [Compound A-8, N-{2-[4-(4-chloro-2-fluorophenyl)piperazin-1-yl]phenyl}cyclohexanesulfonamide] yielded an AC50 of at least 10000 nM.

The molecule `C[C@@H]1CN(CC2CCN(c3c(Br)cccc3NS(=O)(=O)c3ccc(S(=O)(=O)N(C)C)cc3)CC2)C[C@H](C)O1` [Compound A-864, N4-[3-bromo-2-(4-{[(2R,6S)-2,6-dimethylmorpholin-4-yl]methyl}piperidin-1-yl)phenyl]-N1,N1-dimethylbenzene-1,4-disulfonamide] showed an AC50 of at most 2000 nM.

For `CNCC1(c2ccc(F)cc2F)CCN(c2ccccc2NS(=O)(=O)c2ccc(S(=O)(=O)N(C)C)cc2)CC1` [Compound A-218, N4-{2-[4-(2,4-difluorophenyl)-4-[(methylamino)methyl]piperidin-1-yl]phenyl}-N1,N1-dimethylbenzene-1,4-disulfonamide], the AC50 was at most 2000 nM.

For the molecule `COCC1(C)CCN(c2ccccc2NS(=O)(=O)c2cccc(C3CC3)c2)CC1` [Compound A-643, 3-cyclopropyl-N-{2-[4-(methoxymethyl)-4-methylpiperidin-1-yl]phenyl}benzene-1-sulfonamide], the AC50 was at most 2000 nM.

The molecule `CC(C)(C)S(=O)(=O)c1ccc(S(=O)(=O)Nc2ccccc2N2CCC(c3c(F)cccc3F)CC2)cc1` [Compound A-213, N-{2-[4-(2,6-difluorophenyl)piperidin-1-yl]phenyl}-4-(2-methylpropane-2-sulfonyl)benzene-1-sulfonamide] came in with an AC50 of at most 2000 nM.

As to `CS(=O)(=O)c1ccc(S(=O)(=O)Nc2ccccc2N2CCC3(CC2)CN(CC2CCCO2)c2cc(F)ccc23)cc1` (stereo not drawn) [Compound A-467, N-(2-{6-fluoro-1-[(oxolan-2-yl)methyl]-1,2-dihydrospiro[indole-3,4′-piperidin]-1′-yl}phenyl)-4-methanesulfonylbenzene-1-sulfonamide], the half-maximal activity concentration (AC50) is at most 2000 nM.

In turn, `Cc1ccc(N2CCOCC2)c(NS(=O)(=O)c2ccc3c(c2)CCC3)c1` [Compound A-520, N-[5-methyl-2-(morpholin-4-yl)phenyl]-2,3-dihydro-1H-indene-5-sulfonamide] gave a concentration at half-maximal activity (AC50) of at most 2000 nM.

As to `COCC1(C)CCN(c2ccccc2NS(=O)(=O)Cc2ccc3c(c2)COCC3)CC1` [Compound A-571, 1-(3,4-dihydro-1H-2-benzopyran-7-yl)-N-{2-[4-(methoxymethyl)-4-methylpiperidin-1-yl]phenyl}methanesulfonamide], the concentration at half-maximal activity (AC50) is 2010 to 8000 nM.

`CNC(=O)c1cccc(NS(=O)(=O)c2ccc(S(=O)(=O)N(C)C)cc2)c1N1CCCCC1` [Compound A-809, 3-[4-(dimethylsulfamoyl)benzenesulfonamido]-N-methyl-2-(piperidin-1-yl)benzamide] registered an AC50 of at least 10000 nM.

Regarding `CN(C)S(=O)(=O)c1ccc(S(=O)(=O)Nc2ccccc2N2CCC(CNC(C)(C)C)CC2)cc1` [Compound A-415, N4-(2-{4-[(tert-butylamino)methyl]piperidin-1-yl}phenyl)-N1,N1-dimethylbenzene-1,4-disulfonamide], the AC50 is at most 2000 nM.

The molecule `COCC1(C)CCN(c2ccccc2NS(=O)(=O)C2CCc3ccccc32)CC1` (stereo not drawn) [Compound A-597, N-{2-[4-(methoxymethyl)-4-methylpiperidin-1-yl]phenyl}-2,3-dihydro-1H-indene-1-sulfonamide] gave a half-maximal activity concentration (AC50) of 8010 to 9990 nM.

The molecule `CN(C)S(=O)(=O)c1ccc(S(=O)(=O)Nc2ccccc2N2CCC(C(C)(C)O)CC2)cc1` [Compound A-725, N4-{2-[4-(2-hydroxypropan-2-yl)piperidin-1-yl]phenyl}-N1,N1-dimethylbenzene-1,4-disulfonamide] returned an AC50 of 8010 to 9990 nM.

Regarding `CN(C)S(=O)(=O)c1ccc(S(=O)(=O)Nc2nc(N3CCN(c4ccc(Cl)cc4F)CC3)nn2C)cc1` [Compound A-68, N1-(3-(4-(4-chloro-2-fluorophenyl)piperazin-1-yl)-1-methyl-1H-1,2,4-triazol-5-yl)-N4,N4-dimethylbenzene-1,4-disulfonamide], the concentration at half-maximal activity (AC50) is at least 10000 nM.

In turn, `CN(C)S(=O)(=O)c1ccc(S(=O)(=O)Nc2cncc(F)c2N2CCCCC2)cc1` [Compound A-856, N1-(5-fluoro-4-(piperidin-1-yl)pyridin-3-yl)-N^4,N^4-dimethylbenzene-1,4-disulfonamide] yielded an AC50 of at least 10000 nM.

`COCCOCCOCCOc1ccc(S(=O)(=O)Nc2ccccc2N2CCC(c3ccc(Cl)cc3F)CC2)cc1` [Compound A-588, N-{2-[4-(4-chloro-2-fluorophenyl)piperidin-1-yl]phenyl}-4-{2-[2-(2-methoxyethoxy)ethoxy]ethoxy}benzene-1-sulfonamide]: the AC50 was at most 2000 nM.

For `CC1(C)CC2(CCN(c3ccccc3NS(=O)(=O)c3ccn(C4CC4(F)F)n3)CC2)CO1` (stereo not drawn) [Compound A-689, 1-(2,2-difluorocyclopropyl)-N-(2-{3,3-dimethyl-2-oxa-8-azaspiro[4.5]decan-8-yl}phenyl)-1H-pyrazole-3-sulfonamide], the half-maximal activity concentration (AC50) is at least 10000 nM.

`CN(C)S(=O)(=O)c1ccc(S(=O)(=O)Nc2ccccc2N2CCC(C#N)(c3ccc(F)cc3F)CC2)cc1` [Compound A-175, N4-{2-[4-cyano-4-(2,4-difluorophenyl)piperidin-1-yl]phenyl}-N1,N1-dimethylbenzene-1,4-disulfonamide]: the AC50 is at most 2000 nM.

In the case of `C[C@@H](c1cccc(F)c1N1CCC(C(F)(F)F)CC1)S(=O)(=O)c1ccc(S(=N)(=O)N(C)C)cc1` (single isomer, unassigned) [Compound A-932], the half-maximal activity concentration (AC50) is at most 2000 nM.
